Measurements published in ChEMBL document CHEMBL1133531, “Carbonic anhydrase inhibitors: perfluoroalkyl/aryl-substituted derivatives of aromatic/heterocyclic sulfonamides as topical intraocular pressure-lowering agents with prolonged duration of action” (J Med Chem, 2000).

Key:
[1] = target: Carbonic anhydrase 1 (Homo sapiens, UniProt P00915)
Description: Inhibition of human recombinant carbonic anhydrase I (CA1)

[2] = target: T1, Carbonic anhydrase 4 (Bos taurus, UniProt Q95323)
T1 sequence (Q95323 whole entry): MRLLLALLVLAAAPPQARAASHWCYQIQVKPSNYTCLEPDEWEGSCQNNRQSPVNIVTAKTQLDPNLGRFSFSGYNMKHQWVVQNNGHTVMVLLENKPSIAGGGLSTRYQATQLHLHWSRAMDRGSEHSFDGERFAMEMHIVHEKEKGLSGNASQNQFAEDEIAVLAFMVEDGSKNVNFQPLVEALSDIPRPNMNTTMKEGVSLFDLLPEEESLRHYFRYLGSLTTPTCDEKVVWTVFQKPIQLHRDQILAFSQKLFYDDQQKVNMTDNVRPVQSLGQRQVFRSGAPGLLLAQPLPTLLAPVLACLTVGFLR
Description: Inhibition of bovine carbonic anhydrase IV (CA4) from bovine lung microsomes

Chain of Carbonic anhydrase 1 (P00915 whole entry): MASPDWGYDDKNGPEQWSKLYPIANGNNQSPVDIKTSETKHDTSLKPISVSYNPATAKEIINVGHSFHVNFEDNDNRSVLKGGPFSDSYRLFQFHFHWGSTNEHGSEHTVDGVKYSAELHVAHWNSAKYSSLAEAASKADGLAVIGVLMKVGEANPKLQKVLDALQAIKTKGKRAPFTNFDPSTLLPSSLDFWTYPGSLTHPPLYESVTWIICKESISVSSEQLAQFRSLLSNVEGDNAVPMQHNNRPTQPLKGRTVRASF

Row | SMILES | Ki [1] [nM] | Ki [2] [nM]
1 | NS(=O)(=O)c1cccc(NS(=O)(=O)c2ccc(NS(=O)(=O)C(F)(F)C(F)(F)C(F)(F)C(F)(F)F)cc2)c1 | 4000 | 36
2 | NS(=O)(=O)c1cccc(NS(=O)(=O)c2ccc(NC(=O)c3c(F)c(F)c(F)c(F)c3F)cc2)c1 | 8000 | 55
3 | NS(=O)(=O)c1nc2ccc(OC(=O)c3c(F)c(F)c(F)c(F)c3F)cc2s1 | 105 | 9
4 | NS(=O)(=O)c1nc2ccc(OCCOS(=O)(=O)C(F)(F)F)cc2s1 | 50 | 7
5 | NS(=O)(=O)c1ccc(NS(=O)(=O)C(F)(F)C(F)(F)C(F)(F)C(F)(F)F)cc1 | 15200 | 480
6 | NS(=O)(=O)c1ccc(NS(=O)(=O)c2c(F)c(F)c(F)c(F)c2F)c(F)c1 | 710 | 140
7 | NS(=O)(=O)c1ccc(NC(=O)C(F)(F)C(F)(F)C(F)(F)C(F)(F)C(F)(F)C(F)(F)C(F)(F)C(F)(F)F)c(Cl)c1 | 2300 | 600
8 | NS(=O)(=O)c1ccc(NS(=O)(=O)C(F)(F)C(F)(F)C(F)(F)C(F)(F)F)c(I)c1 | 23400 | 1040
9 | NS(=O)(=O)c1ccc(NNS(=O)(=O)c2c(F)c(F)c(F)c(F)c2F)cc1 | 1000 | 500
10 | Cn1nc(S(N)(=O)=O)s/c1=N/S(=O)(=O)c1ccc(NS(=O)(=O)C(F)(F)C(F)(F)C(F)(F)C(F)(F)C(F)(F)C(F)(F)C(F)(F)C(F)(F)F)cc1 | 1100 | 25
11 | NS(=O)(=O)c1nc2ccc(OS(=O)(=O)c3c(F)c(F)c(F)c(F)c3F)cc2s1 | 25 | 6
12 | NS(=O)(=O)c1ccc(Nc2ccnc(NS(=O)(=O)C(F)(F)C(F)(F)C(F)(F)C(F)(F)F)n2)cc1 | 6000 | 30
13 | NS(=O)(=O)c1ccc(NS(=O)(=O)C(F)(F)F)c(Cl)c1 | 180000 | 42000
14 | NS(=O)(=O)c1ccc(CCOS(=O)(=O)C(F)(F)C(F)(F)C(F)(F)C(F)(F)C(F)(F)C(F)(F)C(F)(F)C(F)(F)F)cc1 | 22000 | 12300
15 | NS(=O)(=O)c1ccc(NC(=O)c2c(F)c(F)c(F)c(F)c2F)c(I)c1 | 2560 | 1040
16 | NS(=O)(=O)c1ccc(NS(=O)(=O)C(F)(F)C(F)(F)C(F)(F)C(F)(F)F)c(F)c1 | 1070 | 200
17 | NS(=O)(=O)c1nnc(NC(=O)CCNC(=O)C(F)(F)C(F)(F)C(F)(F)C(F)(F)C(F)(F)C(F)(F)C(F)(F)C(F)(F)F)s1 | 300 | 8
18 | NS(=O)(=O)c1cc(S(N)(=O)=O)c(NS(=O)(=O)c2c(F)c(F)c(F)c(F)c2F)cc1Cl | 300 | 26
19 | NS(=O)(=O)c1nc2ccc(NC(=O)c3c(F)c(F)c(F)c(F)c3F)cc2s1 | 120 | 8
20 | NS(=O)(=O)c1ccc(NS(=O)(=O)C(F)(F)C(F)(F)C(F)(F)C(F)(F)F)c(Br)c1 | 20300 | 900
21 | NS(=O)(=O)c1nnc(NC(=O)CCNC(=O)c2c(F)c(F)c(F)c(F)c2F)s1 | 300 | 10
22 | NS(=O)(=O)c1cc(S(N)(=O)=O)c(NC(=O)C(F)(F)C(F)(F)C(F)(F)C(F)(F)C(F)(F)C(F)(F)C(F)(F)C(F)(F)F)c(Cl)c1Cl | 7000 | 830
23 | NS(=O)(=O)c1ccc(NS(=O)(=O)c2ccc(NC(=O)C(F)(F)C(F)(F)C(F)(F)C(F)(F)C(F)(F)C(F)(F)C(F)(F)C(F)(F)F)cc2)cc1 | 2400 | 25
24 | NS(=O)(=O)c1ccc(CNC(=O)c2c(F)c(F)c(F)c(F)c2F)cc1 | 980 | 350
25 | NS(=O)(=O)c1cccc(NS(=O)(=O)C(F)(F)C(F)(F)C(F)(F)C(F)(F)C(F)(F)C(F)(F)C(F)(F)C(F)(F)F)c1 | 1400 | 870
26 | Cn1nc(S(N)(=O)=O)s/c1=N/C(=O)c1c(F)c(F)c(F)c(F)c1F | 270 | 8

Further compounds by falling Ki [1], results first:

Row | Ki [1] [nM] | Ki [2] [nM] | SMILES
27 | 156000 | 60800 | NS(=O)(=O)c1ccc(NNS(=O)(=O)C(F)(F)F)cc1
28 | 81300 | 50000 | NS(=O)(=O)c1ccc(CCNS(=O)(=O)C(F)(F)F)cc1
29 | 18400 | 590 | NS(=O)(=O)c1cccc(NS(=O)(=O)C(F)(F)C(F)(F)C(F)(F)C(F)(F)F)c1
30 | 13000 | 255 | NS(=O)(=O)c1ccc(CNS(=O)(=O)C(F)(F)C(F)(F)C(F)(F)C(F)(F)F)cc1
31 | 8000 | 765 | NS(=O)(=O)c1cc(S(N)(=O)=O)c(NS(=O)(=O)C(F)(F)C(F)(F)C(F)(F)C(F)(F)C(F)(F)C(F)(F)C(F)(F)C(F)(F)F)c(Cl)c1Cl
32 | 5500 | 725 | NS(=O)(=O)c1cc(S(N)(=O)=O)c(NS(=O)(=O)C(F)(F)F)c(Cl)c1Cl
33 | 5000 | 45 | NS(=O)(=O)c1cccc(NS(=O)(=O)c2ccc(NS(=O)(=O)C(F)(F)F)cc2)c1
34 | 4400 | 36 | NS(=O)(=O)c1ccc(Nc2ccnc(NC(=O)C(F)(F)C(F)(F)C(F)(F)C(F)(F)C(F)(F)C(F)(F)C(F)(F)C(F)(F)F)n2)cc1
35 | 3000 | 680 | NS(=O)(=O)c1ccc(NC(=O)C(F)(F)C(F)(F)C(F)(F)C(F)(F)C(F)(F)C(F)(F)C(F)(F)C(F)(F)F)c(I)c1
36 | 2500 | 620 | NS(=O)(=O)c1ccc(NC(=O)C(F)(F)C(F)(F)C(F)(F)C(F)(F)C(F)(F)C(F)(F)C(F)(F)C(F)(F)F)c(Br)c1
37 | 2480 | 10300 | NS(=O)(=O)c1ccc(NS(=O)(=O)C(F)(F)C(F)(F)C(F)(F)C(F)(F)C(F)(F)C(F)(F)C(F)(F)C(F)(F)F)c(Cl)c1
38 | 1900 | 420 | NS(=O)(=O)c1cc(S(N)(=O)=O)c(NC(=O)c2c(F)c(F)c(F)c(F)c2F)c(Cl)c1Cl
39 | 1870 | 865 | NS(=O)(=O)c1ccc(NC(=O)c2c(F)c(F)c(F)c(F)c2F)c(Br)c1
40 | 1760 | 675 | NS(=O)(=O)c1ccc(NS(=O)(=O)c2c(F)c(F)c(F)c(F)c2F)c(I)c1
41 | 1600 | 935 | NS(=O)(=O)c1cccc(NC(=O)C(F)(F)C(F)(F)C(F)(F)C(F)(F)C(F)(F)C(F)(F)C(F)(F)C(F)(F)F)c1
42 | 1500 | 32 | NS(=O)(=O)c1nnc(NS(=O)(=O)c2ccc(NC(=O)c3c(F)c(F)c(F)c(F)c3F)cc2)s1
43 | 1500 | 550 | NS(=O)(=O)c1ccc(NS(=O)(=O)c2c(F)c(F)c(F)c(F)c2F)c(Br)c1
44 | 1500 | 142 | NS(=O)(=O)c1cc(S(N)(=O)=O)c(NS(=O)(=O)c2c(F)c(F)c(F)c(F)c2F)c(Cl)c1Cl
45 | 1500 | 1200 | NS(=O)(=O)c1ccccc1NS(=O)(=O)C(F)(F)C(F)(F)C(F)(F)C(F)(F)C(F)(F)C(F)(F)C(F)(F)C(F)(F)F

Row | Ki [1] [nM] | Ki [2] [nM] | SMILES
46 | 1080 | 590 | NS(=O)(=O)c1ccc(NC(=O)c2c(F)c(F)c(F)c(F)c2F)c(Cl)c1
47 | 1000 | 25 | NS(=O)(=O)c1nnc(NS(=O)(=O)c2ccc(NS(=O)(=O)C(F)(F)F)cc2)s1
48 | 1000 | 750 | NS(=O)(=O)c1ccc(CNC(=O)C(F)(F)C(F)(F)C(F)(F)C(F)(F)C(F)(F)C(F)(F)C(F)(F)C(F)(F)F)cc1
49 | 950 | 520 | NS(=O)(=O)c1ccc(CCNC(=O)C(F)(F)C(F)(F)C(F)(F)C(F)(F)C(F)(F)C(F)(F)C(F)(F)C(F)(F)F)cc1
50 | 900 | 17 | NS(=O)(=O)c1nnc(NS(=O)(=O)c2ccc(NS(=O)(=O)C(F)(F)C(F)(F)C(F)(F)C(F)(F)F)cc2)s1
51 | 890 | 155 | NS(=O)(=O)c1cc(S(N)(=O)=O)c(NS(=O)(=O)C(F)(F)C(F)(F)C(F)(F)C(F)(F)C(F)(F)C(F)(F)C(F)(F)C(F)(F)F)cc1Cl
52 | 810 | 130 | NS(=O)(=O)c1cc(S(N)(=O)=O)c(NC(=O)C(F)(F)C(F)(F)C(F)(F)C(F)(F)C(F)(F)C(F)(F)C(F)(F)C(F)(F)F)cc1Cl
53 | 790 | 240 | NS(=O)(=O)c1ccc(CNS(=O)(=O)c2c(F)c(F)c(F)c(F)c2F)cc1
54 | 760 | 230 | NS(=O)(=O)c1ccc(CCNS(=O)(=O)c2c(F)c(F)c(F)c(F)c2F)cc1
55 | 550 | 150 | NS(=O)(=O)c1cc(S(N)(=O)=O)c(NS(=O)(=O)C(F)(F)F)cc1Cl
56 | 350 | 10 | Cn1nc(S(N)(=O)=O)sc1=NS(=O)(=O)C(F)(F)C(F)(F)C(F)(F)C(F)(F)F
57 | 300 | 11 | NS(=O)(=O)c1nnc(NC(=O)CCNS(=O)(=O)C(F)(F)C(F)(F)C(F)(F)C(F)(F)F)s1
58 | 300 | 13 | NS(=O)(=O)c1nnc(NC(=O)C(F)(F)C(F)(F)C(F)(F)C(F)(F)C(F)(F)C(F)(F)C(F)(F)C(F)(F)F)s1
59 | 300 | 103 | NS(=O)(=O)c1ccc(CCOS(=O)(=O)c2c(F)c(F)c(F)c(F)c2F)cc1
60 | 125 | 15 | NS(=O)(=O)c1ccc(NS(=O)(=O)c2ccc(NS(=O)(=O)c3c(F)c(F)c(F)c(F)c3F)cc2)cc1
61 | 54 | 6 | NS(=O)(=O)c1nc2ccc(NS(=O)(=O)C(F)(F)C(F)(F)C(F)(F)C(F)(F)F)cc2s1
62 | 49 | 7 | NS(=O)(=O)c1nc2ccc(NS(=O)(=O)C(F)(F)C(F)(F)C(F)(F)C(F)(F)C(F)(F)C(F)(F)C(F)(F)C(F)(F)F)cc2s1
63 | 37 | 14 | NS(=O)(=O)c1nc2ccc(OC(=O)C(F)(F)C(F)(F)C(F)(F)C(F)(F)C(F)(F)C(F)(F)C(F)(F)C(F)(F)F)cc2s1
64 | 19 | 6 | NS(=O)(=O)c1nc2ccc(OCCOS(=O)(=O)C(F)(F)C(F)(F)C(F)(F)C(F)(F)F)cc2s1
